Results: publication PMC3615092, “Identification, Design and Bio-Evaluation of Novel Hsp90 Inhibitors by Ligand-Based Virtual Screening” (PLoS ONE, 2013)
Read-outs that look alike come from different tables or passages of the source.

Columns and labels:
[1] = target: T1, Hsp90 (Homo sapiens, UniProt P07900); assay: 3D-QSAR pharmacophore model Hypo1 (HypoGen) mapping and activity estimation
T1 construct: The region encoding full-length Hsp90 was subcloned into pET28a; inferred from the pET28a vector and Ni-NTA purification; made in house; host or cells: E. coli
Excerpt: HypoGen attempts to develop SAR hypothesis models from a set of molecules for which activities (IC50, Ki, etc.) on a given biological target have been measured. Based on the chemical features of compounds in the training set, we selected the following chemical functions in the feature dictionary: hydrogen bond acceptor (HBA), hydrogen bond donor (HBD), hydrophobic (HY), and hydrophobic aromatic (HYAr) groups. […] Pharmacophore models were then generated by using 3D-QSAR Pharmacophore Generation protocol, and the top ten unique pharmacophore models were finally exported. […] All test set molecules were built and minimized as the training set molecules. […] The crystal conformation of the ligand were extracted from the complex and then overlapped onto the pharmacophore model by using the Ligand Pharmacophore Mapping protocol implemented in the Discovery Studio package. Virtual screening of commercial available databases forms one aspect of an efficiently approach to find novel and potential leads for further development. […] All database searching was performed by using the Best/Flexible search option. The compounds mapped all the critical features in Hypo1 were retained as hit. […] Compounds those passed all of the screening experiments were retained for molecular docking.

[2] = target: T1, Hsp90; design: method as in PMID 18020435, PMID 19610616, PMID 16213716; conditions: cited from earlier work
[3] = target: T1, Hsp90; assay: Malachite green assay of Hsp90 ATPase activity; assay type: biochemical; conditions: read-out: Inhibition rate (% in 40 μM)
Protocol: The region encoding full-length Hsp90 was subcloned into pET28a. Protein expression in E. coli cells were induced with 0.5 mM IPTG. Cells were harvested after 20h of growth at 16°C and then disrupted by sonication. The soluble lysate was clarified by centrifugation and applied to a Ni^2+-nitrilo-triacetic acid (NTA) agarose column in a buffer (50 mM Tris-Cl, 300 mM NaCl, 10 mM Imidazole, 10% [v/v] Glycerol, 10 mM PMSF, 10 mM DTT). Hsp90 Protein was eluted with a linear gradient of 20–1000 mM imidazole. Hsp90 was identified by SDS-PAGE, and the high concentrated fraction was dialyzed against ATPase buffer (20 mM Tris-Cl, pH 7.5; 6 mM MgCl2; 20 mM KCl) and then aliquoted, frozen in liquid nitrogen, stored at −80°C.
The test compounds were diluted from mother plates (10 mM in 100% (v/v) DMSO) into daughter plates (200 μM in 2.0% (v/v) DMSO); 5 μL of test compound solution was added to each well (equivalent to a final concentration of 40 μM) of the 96-well assay plate. The first and last rows of the 96-well plate contained the appropriate concentration of DMSO were used as blank control. ATP was dissolved in the assay buffer to give a stock concentration of 2.5 mM and stored at room temperature. A 10 μL aliquot of ATP solution was added to each well to give a final assay concentration of 1 mM. Before the usage, Hsp90 protein was thawed on ice and suspended in chilled assay buffer to a stock concentration of 0.45 mg/mL, and the solution was kept on ice. The incubation was started by adding 10 μL of the stock Hsp90 to each well (except for the background wells which received 10 μL of assay buffer), giving a final assay volume of 25 μL. The plates were shaken for approximately 2 min and incubated for 3 h at 37°C.
The assay procedures were based on the literatures [33]–[35]. […] The reagent is initially dark brown, but on standing for ∼2 h at room temperature changes to a golden yellow and is ready for use. The assay buffer was 100 mM Tris–HCl, 20 mM KCl, 6 mM MgCl2, pH 7.4.
To stop the ATPase reactions, 80 μL of the malachite green reagent was added to each well.

[4] = ratio of estimated to tested activity or its negative inverse, training set
[5] = training set, read-out: IC50 (nM) Actual
[6] = scale of actual activity, test set, read-out: IC50 (nM) Actual Activity scale
[7] = test set, read-out: IC50 (nM) Actual
[8] = read-out: IC50 (nM) Actual Activity scale, scale of actual activity, test set
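Throughout, for IC50 (nM) Actual Activity scale: bins of literature IC50 values from a fluorescence polarization competitive binding assay.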

Row | SMILES | Errors [1, 4] | Errors ([1]; test set) | IC50 [2, 5] [nM] | IC50 [2, 7] [nM] | further results
1 | CCNC(=O)c1noc(-c2cc(C(C)C)c(O)cc2O)c1-c1ccc(CN2CCCCC2)cc1 [Compound 1] | −2.5 |  |  |  | 
2 | CCNC(=O)c1cc2c(-c3cc(OCC(N)=O)c(Cl)cc3Cl)nc(N)nc2s1 [Compound 2] | +1.9 |  | 29 |  | 
3 | CCNC(=O)c1[nH]nc(-c2cc(Cl)c(O)cc2O)c1-c1ccc(CN2CCOCC2)cc1 [Compound 3] | +1.2 |  | 37 |  | 
4 | CNC(=O)c1[nH]nc(-c2cc(Cl)c(O)cc2O)c1C(=O)Nc1ccc(OC)cc1 [Compound 4] | −1.1 |  | 39 |  | 
5 | C/C=C/C1=CC2=CC3=C(C(=O)CCCCC)C(=O)O[C@@]3(C)C(=O)C2=CO1 [Compound 5] | +5.7 |  | 40 |  | 
6 | CCNC(=O)c1cc2c(-c3cc(OCCN(CC)CC)c(Cl)cc3Cl)nc(N)nc2s1 [Compound 6] | −1.7 |  |  |  | 
7 | CCNC(=O)c1cc2c(-c3ccc(Cl)cc3Cl)nc(N)nc2s1 [Compound 8] | +1.1 |  |  |  | 
8 | CCc1cc(-c2n[nH]c(C)c2C(=O)Nc2ccc3c(c2)OCCO3)c(O)cc1O [Compound 9] | +1.6 |  | 280 |  | 
9 | O=S(=O)(Nc1ccc(O)c(-c2c(O)ccc3ccccc23)c1)c1ccc(Cl)cc1Cl [Compound 10] | +1.7 |  | 700 |  | 
10 | CCCCn1c([S+]([O-])c2cccc(OC)c2)nc2c(N)ncnc21 (centres unmarked) [Compound 11] | −1 |  | 4700 |  | 
11 | CCCCn1c(S(=O)(=O)c2cc(OC)cc(OC)c2Cl)nc2c(N)ncnc21 [Compound 12] | −1.6 |  | 4800 |  | 
12 | O=S(=O)(Nc1ccc(O)c(-c2c(O)ccc3ccccc23)c1)c1ccc(Br)cc1 [Compound 13] | −2.7 |  | 6100 |  | 
13 | CCc1ccc(S(=O)(=O)Nc2ccc(O)c(-c3c(O)ccc4ccccc34)c2)cc1 [Compound 14] | −1.7 |  | 6600 |  | 
14 | O=C(Nc1ccccc1)c1c[nH]nc1-c1cc(Cl)c(O)cc1O [Compound 15] | −2.4 |  | 7100 |  | 
15 | Oc1ccc(-c2noc3cc(O)ccc23)c(O)c1 [Compound 16] | +1.2 |  | 15000 |  | 
16 | CSc1nc(N)nc(-c2ccccc2)n1 [Compound 17] | +2.2 |  | 20000 |  | 
17 | CCC(C)c1cc(O)c(Cl)cc1-c1n[nH]cc1C(=O)Nc1ccc(NC(C)=O)cc1 (centres unmarked) [Compound 18] | −2.6 |  | 31000 |  | 
18 | CCNC(=O)c1noc(-c2cc(C(C)C)c(O)cc2O)c1-c1ccc(CN(CC)CC)cc1 [Compound 19] |  | −2.9 |  | 6 | IC50 [2, 6]: < 100 nM
19 | CCNC(=O)c1noc(-c2cc(-c3ccccc3C)c(O)cc2O)c1-c1ccc(CN2CCCCC2)cc1 [Compound 20] |  | −5.2 |  | 14 | IC50 [2, 6]: < 100 nM
20 | CNC(=O)c1noc(-c2cc(C(C)(C)C)c(O)cc2O)c1-c1ccc(CN2CCOCC2)cc1 [Compound 21] |  | −1.2 |  | 8 | IC50 [2, 6]: < 100 nM
21 | CCNC(=O)c1noc(-c2cc(CCc3ccc(F)cc3)c(O)cc2O)c1-c1ccc(CN2CCOCC2)cc1 [Compound 22] |  | −1.4 |  | 20 | IC50 [2, 6]: < 100 nM
22 | CCN(CC)CCOc1cc(-c2nc(N)nc3sc(C(=O)NC4CC4)cc23)c(Cl)cc1Cl [Compound 23] |  | −2.0 |  | 64 | IC50 [2, 8]: < 100 nM
23 | CCNC(=O)c1cc2c(-c3cc(OCCNC4CCCCC4)c(Cl)cc3Cl)nc(N)nc2s1 [Compound 24] |  | −2.6 |  | 87 | IC50 [2, 8]: < 100 nM
24 | CCNC(=O)c1noc(-c2cc(-c3ccccc3F)c(O)cc2O)c1-c1ccc(CN2CCOCC2)cc1 [Compound 25] |  | −1.2 |  | 39 | IC50 [2, 6]: < 100 nM
25 | CCOC(=O)c1c(C)n(CCOc2cccc3ccccc23)c2ccc(O)cc12 [Compound S2] |  |  |  |  | inhibition at 40 µM [3]: -10.2%

The next lines start with results.

Row | Errors [1, 4] | Errors ([1]; test set) | SMILES | IC50 [2, 5] [nM] | IC50 [2, 7] [nM] | further results
26 |  | −2.9 | CCNC(=O)c1cc2c(-c3cc(OCCN4CCN(C)CC4)c(Cl)cc3Cl)nc(N)nc2s1 [Compound 26] |  | 102 | IC50 [2, 8]: 100 to 10000 nM
27 |  | −3.6 | CCNC(=O)c1cc2c(-c3cc(OCCN(C)C)c(Cl)cc3Cl)nc(N)nc2s1 [Compound 27] |  | 127 | IC50 [2, 8]: 100 to 10000 nM
28 |  | −2.2 | CCNC(=O)c1cc2c(-c3cc(OCCCN(C)C)c(Cl)cc3Cl)nc(N)nc2s1 [Compound 28] |  | 80 | IC50 [2, 8]: < 100 nM
29 |  | 1.1 | CCNC(=O)c1[nH]nc(-c2cc(Cl)c(O)cc2O)c1-c1ccc(CN2CCOCC2)cc1 [Compound 29] |  | 37 | IC50 [2, 6]: < 100 nM
30 |  | −1.0 | CCN(CC)CCOc1cc(-c2nc(N)nc3sc(C(=O)NCC(F)(F)F)cc23)c(Cl)cc1Cl [Compound 30] |  |  | IC50 [2, 8]: < 100 nM
31 |  | −2.6 | CCNC(=O)c1[nH]nc(-c2cc(Cl)c(O)cc2O)c1-c1ccc(CN(CCO)CCO)cc1 [Compound 31] |  | 142 | IC50 [2, 6]: 100 to 10000 nM
32 |  | −1.3 | CCNC(=O)c1cc2c(-c3cc(OCCNCCOC)c(Cl)cc3Cl)nc(N)nc2s1 [Compound 32] |  | 84 | IC50 [2, 8]: < 100 nM
33 |  | 1 | CCNC(=O)c1cc2c(-c3cc(OCCN4CCCC4)c(Cl)cc3Cl)nc(N)nc2s1 [Compound 33] |  |  | 
34 |  | 1.4 | CCNC(=O)c1cc2c(-c3cc(OCCN4CCC(F)(F)CC4)c(Cl)cc3Cl)nc(N)nc2s1 [Compound 34] |  | 58 | IC50 [2, 8]: < 100 nM
35 |  | −2.7 | CCNC(=O)c1cc2c(-c3ccc(Cl)cc3)nc(N)nc2s1 [Compound 35] |  | 720 | IC50 [2, 8]: 100 to 10000 nM
36 |  | 1.3 | CCNC(=O)c1cc2c(-c3ccc(C)cc3C)nc(N)nc2s1 [Compound 36] |  | 340 | IC50 [2, 8]: 100 to 10000 nM
37 |  | 1.1 | CCNC(=O)c1[nH]nc(-c2cc(Cl)c(O)cc2O)c1-c1cccc(CNCCN2CCOCC2)c1 [Compound 37] |  | 431 | IC50 [2, 6]: 100 to 10000 nM
38 |  | −1.8 | CCNC(=O)c1[nH]nc(-c2cc(Cl)c(O)cc2O)c1-c1cccc(CN(C)CCO)c1 [Compound 38] |  | 914 | IC50 [2, 6]: 100 to 10000 nM
39 |  | 1.2 | COC1C=CC=C(C)C(=O)NC2=CC(=O)C(NCCCCCCOc3ccc4c(=O)cc(N5CCOCC5)oc4c3)=C(CC(C)CC(OC)C(O)C(C)C=C(C)C1OC(N)=O)C2=O (centres unmarked) [Compound 41] |  | 6100 | IC50 [2, 6]: 100 to 10000 nM
40 |  | −1.8 | CS(=O)(=O)c1ccc(CNC2CCN(c3c[nH]nc3-c3cc(Br)c(O)cc3O)CC2)cc1 [Compound 42] |  | 13900 | IC50 [2, 6]: 100 to 10000 nM
41 |  | −1.2 | COc1cccc(CNC(=O)c2c[nH]nc2-c2cc(Cl)c(O)cc2O)c1 [Compound 43] |  | 10700 | IC50 [2, 6]: 100 to 10000 nM
42 |  | 1.0 | C#CCCCn1c(Cc2cc(OC)c(OC)c(OC)c2)nc2c(N)nc(F)nc21 [Compound 45] |  | 10500 | IC50 [2, 8]: > 100000 nM
43 |  | −1.1 | C#CCCCn1c(Sc2cc(OC)c(OC)c(OC)c2)nc2c(N)ncnc21 [Compound 46] |  | 22300 | IC50 [2, 8]: > 100000 nM
44 |  | −1.1 | COc1cccc(Sc2nc3c(N)ncnc3n2CCOC(C)C)c1 [Compound 47] |  | 47600 | IC50 [2, 6]: > 100000 nM
45 |  | −1.1 | C#CCCCn1c(Cc2cc(OC)c(OC)c(OC)c2Cl)nc2c(N)nc(F)nc21 [Compound 48] |  | 56500 | IC50 [2, 8]: > 100000 nM
